Measured values published in ChEMBL document CHEMBL4507291 (2021).

Key:
[1] = biological target: Calcium/calmodulin-dependent protein kinase type 1G (Homo sapiens) (UniProt Q96NX5)
[2] = biological target: Phosphatidylinositol 4-phosphate 5-kinase type-1 alpha (Homo sapiens) (UniProt Q99755)
[3] = biological target: Serine/threonine-protein kinase WNK2 (Homo sapiens) (UniProt Q9Y3S1)
[4] = test system: Tyrosine-protein kinase ABL1 (Homo sapiens), P00519 [E255K]
[5] = test system: Receptor-type tyrosine-protein kinase FLT3 (Homo sapiens), P36888 [R834Q]
[6] = biological target: Casein kinase II subunit alpha (Homo sapiens) (UniProt P68400)
[7] = biological target: Casein kinase I isoform gamma-1 (Homo sapiens) (UniProt Q9HCP0)
[8] = biological target: Rho-associated protein kinase 2 (Homo sapiens) (UniProt O75116)
[9] = test system: Mast/stem cell growth factor receptor Kit (Homo sapiens), P10721 [V559D]
[10] = biological target: Mitogen-activated protein kinase kinase kinase kinase 1 (Homo sapiens) (UniProt Q92918)
[11] = biological target: Ribosomal protein S6 kinase alpha-3 (Homo sapiens) (UniProt P51812)
[12] = biological target: Receptor-type tyrosine-protein kinase FLT3 (Homo sapiens) (UniProt P36888)
[13] = biological target: T1, Inhibitor of nuclear factor kappa-B kinase subunit beta (Homo sapiens) (UniProt O14920)
T1 sequence (whole entry): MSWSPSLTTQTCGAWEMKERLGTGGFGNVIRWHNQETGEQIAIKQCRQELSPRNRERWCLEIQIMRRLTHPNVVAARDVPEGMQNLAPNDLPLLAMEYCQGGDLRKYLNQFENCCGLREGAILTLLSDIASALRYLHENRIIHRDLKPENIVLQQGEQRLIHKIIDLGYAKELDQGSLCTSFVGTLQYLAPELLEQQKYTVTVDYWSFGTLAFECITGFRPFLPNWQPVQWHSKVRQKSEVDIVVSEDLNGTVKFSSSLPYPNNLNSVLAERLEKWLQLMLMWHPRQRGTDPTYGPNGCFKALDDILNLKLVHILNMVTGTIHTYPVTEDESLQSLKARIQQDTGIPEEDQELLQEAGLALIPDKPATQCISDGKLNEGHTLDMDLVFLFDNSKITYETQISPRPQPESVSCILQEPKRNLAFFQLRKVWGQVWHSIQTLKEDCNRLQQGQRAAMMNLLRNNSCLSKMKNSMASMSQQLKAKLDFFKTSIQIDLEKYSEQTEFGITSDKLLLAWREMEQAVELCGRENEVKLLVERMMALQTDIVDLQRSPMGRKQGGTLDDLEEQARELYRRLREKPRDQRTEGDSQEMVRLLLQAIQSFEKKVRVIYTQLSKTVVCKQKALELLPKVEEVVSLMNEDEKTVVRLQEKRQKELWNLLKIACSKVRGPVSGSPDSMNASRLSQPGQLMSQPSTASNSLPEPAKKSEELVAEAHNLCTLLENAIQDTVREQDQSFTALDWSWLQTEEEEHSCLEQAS

[14] = biological target: T2, Tyrosine-protein kinase JAK3 (Homo sapiens) (UniProt P52333)
T2 sequence (whole entry): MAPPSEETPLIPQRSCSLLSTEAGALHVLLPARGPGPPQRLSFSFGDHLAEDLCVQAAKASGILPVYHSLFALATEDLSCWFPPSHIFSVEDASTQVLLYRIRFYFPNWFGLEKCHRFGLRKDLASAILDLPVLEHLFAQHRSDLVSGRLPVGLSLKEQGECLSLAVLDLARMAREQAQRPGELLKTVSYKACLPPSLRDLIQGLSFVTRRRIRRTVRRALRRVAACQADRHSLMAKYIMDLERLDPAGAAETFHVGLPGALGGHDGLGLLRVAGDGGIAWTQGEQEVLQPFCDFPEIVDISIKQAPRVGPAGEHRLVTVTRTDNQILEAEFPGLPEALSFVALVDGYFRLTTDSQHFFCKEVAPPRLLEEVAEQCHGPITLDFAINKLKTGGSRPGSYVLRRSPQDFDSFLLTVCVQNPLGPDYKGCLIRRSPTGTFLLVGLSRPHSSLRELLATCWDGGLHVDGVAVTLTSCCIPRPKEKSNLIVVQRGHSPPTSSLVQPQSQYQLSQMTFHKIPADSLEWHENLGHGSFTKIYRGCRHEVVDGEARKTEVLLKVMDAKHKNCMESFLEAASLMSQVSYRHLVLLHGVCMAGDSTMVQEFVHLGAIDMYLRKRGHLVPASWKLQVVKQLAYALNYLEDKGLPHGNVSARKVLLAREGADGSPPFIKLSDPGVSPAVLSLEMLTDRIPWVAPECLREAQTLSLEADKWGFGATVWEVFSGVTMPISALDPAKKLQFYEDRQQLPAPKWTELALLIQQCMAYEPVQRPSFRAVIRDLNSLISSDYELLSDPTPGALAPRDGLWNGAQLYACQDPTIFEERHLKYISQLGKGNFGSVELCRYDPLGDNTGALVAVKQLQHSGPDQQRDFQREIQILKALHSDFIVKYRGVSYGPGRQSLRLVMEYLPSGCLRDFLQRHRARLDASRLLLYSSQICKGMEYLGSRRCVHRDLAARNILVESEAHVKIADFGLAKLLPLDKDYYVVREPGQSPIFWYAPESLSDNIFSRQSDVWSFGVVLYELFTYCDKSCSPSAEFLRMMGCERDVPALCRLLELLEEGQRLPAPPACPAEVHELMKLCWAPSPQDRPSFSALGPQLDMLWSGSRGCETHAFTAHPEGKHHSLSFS

[15] = biological target: Cyclin-dependent kinase 4 (Homo sapiens) (UniProt P11802)
[16] = biological target: Cyclin-dependent kinase-like 2 (Homo sapiens) (UniProt Q92772)
[17] = biological target: Tyrosine-protein kinase Lyn (Homo sapiens) (UniProt P07948)
[18] = biological target: Vascular endothelial growth factor receptor 3 (Homo sapiens) (UniProt P35916)
[19] = biological target: Protein-tyrosine kinase 2-beta (Homo sapiens) (UniProt Q14289)
[20] = Compound concentration 1000.0 nM
[21] = Compound concentration 100.0 nM

Calcium/calmodulin-dependent protein kinase type 1G (Homo sapiens), sequence (Q96NX5 whole entry): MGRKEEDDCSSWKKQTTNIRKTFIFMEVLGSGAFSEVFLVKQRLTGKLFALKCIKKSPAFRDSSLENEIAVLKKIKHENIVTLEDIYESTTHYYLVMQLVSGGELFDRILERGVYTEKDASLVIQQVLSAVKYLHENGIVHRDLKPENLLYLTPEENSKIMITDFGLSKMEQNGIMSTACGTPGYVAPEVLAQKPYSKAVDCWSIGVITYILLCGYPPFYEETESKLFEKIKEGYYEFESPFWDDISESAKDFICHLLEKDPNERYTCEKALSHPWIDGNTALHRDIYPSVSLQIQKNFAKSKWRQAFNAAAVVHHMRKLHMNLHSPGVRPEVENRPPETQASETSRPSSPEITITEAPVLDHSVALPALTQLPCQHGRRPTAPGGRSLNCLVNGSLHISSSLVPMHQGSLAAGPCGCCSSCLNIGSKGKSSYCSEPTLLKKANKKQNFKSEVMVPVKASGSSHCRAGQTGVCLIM
Tyrosine-protein kinase ABL1 (Homo sapiens), P00519 [E255K], sequence (P00519 whole entry E255K): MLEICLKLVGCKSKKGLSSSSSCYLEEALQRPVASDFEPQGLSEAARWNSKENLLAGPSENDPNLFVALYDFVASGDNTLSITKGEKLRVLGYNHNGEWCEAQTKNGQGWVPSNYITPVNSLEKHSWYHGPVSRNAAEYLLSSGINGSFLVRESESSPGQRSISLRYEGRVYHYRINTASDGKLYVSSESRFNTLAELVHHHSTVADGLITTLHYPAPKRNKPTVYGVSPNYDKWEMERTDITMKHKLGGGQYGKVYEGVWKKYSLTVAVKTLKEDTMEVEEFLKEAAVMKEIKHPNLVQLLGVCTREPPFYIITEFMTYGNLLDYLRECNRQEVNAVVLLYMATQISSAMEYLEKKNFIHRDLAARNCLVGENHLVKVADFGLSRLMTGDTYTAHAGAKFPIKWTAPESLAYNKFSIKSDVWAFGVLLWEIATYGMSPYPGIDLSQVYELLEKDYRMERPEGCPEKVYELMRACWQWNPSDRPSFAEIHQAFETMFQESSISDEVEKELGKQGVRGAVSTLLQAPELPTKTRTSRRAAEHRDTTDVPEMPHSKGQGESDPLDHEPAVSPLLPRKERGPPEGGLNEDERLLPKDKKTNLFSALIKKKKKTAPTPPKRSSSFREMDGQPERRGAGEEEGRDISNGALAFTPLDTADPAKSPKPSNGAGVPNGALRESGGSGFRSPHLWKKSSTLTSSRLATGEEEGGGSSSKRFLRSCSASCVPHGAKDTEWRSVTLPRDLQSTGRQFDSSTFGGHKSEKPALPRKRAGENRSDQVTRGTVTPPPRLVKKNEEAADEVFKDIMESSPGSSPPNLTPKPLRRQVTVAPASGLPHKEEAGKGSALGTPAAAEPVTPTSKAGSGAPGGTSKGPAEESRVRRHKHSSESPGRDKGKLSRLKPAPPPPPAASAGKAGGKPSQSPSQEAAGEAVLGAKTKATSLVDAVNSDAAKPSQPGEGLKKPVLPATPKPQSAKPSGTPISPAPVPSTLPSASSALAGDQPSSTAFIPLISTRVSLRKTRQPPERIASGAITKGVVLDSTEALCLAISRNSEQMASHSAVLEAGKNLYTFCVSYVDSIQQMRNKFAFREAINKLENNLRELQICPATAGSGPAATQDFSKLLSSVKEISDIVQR
Cyclin-dependent kinase-like 2 (Homo sapiens), sequence (Q92772 whole entry): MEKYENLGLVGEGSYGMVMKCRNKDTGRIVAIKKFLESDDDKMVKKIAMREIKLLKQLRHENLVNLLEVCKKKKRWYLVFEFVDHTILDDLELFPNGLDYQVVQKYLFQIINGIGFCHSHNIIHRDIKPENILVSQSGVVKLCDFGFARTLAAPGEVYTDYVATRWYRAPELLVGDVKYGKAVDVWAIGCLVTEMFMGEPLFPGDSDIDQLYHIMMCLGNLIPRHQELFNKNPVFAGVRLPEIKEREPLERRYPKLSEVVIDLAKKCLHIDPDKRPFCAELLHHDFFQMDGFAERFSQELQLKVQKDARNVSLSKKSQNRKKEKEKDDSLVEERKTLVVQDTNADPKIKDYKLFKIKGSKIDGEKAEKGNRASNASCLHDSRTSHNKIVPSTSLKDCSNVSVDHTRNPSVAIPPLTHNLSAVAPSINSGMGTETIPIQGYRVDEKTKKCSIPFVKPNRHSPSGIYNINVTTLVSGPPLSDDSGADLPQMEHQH
Ribosomal protein S6 kinase alpha-3 (Homo sapiens), sequence (P51812 whole entry): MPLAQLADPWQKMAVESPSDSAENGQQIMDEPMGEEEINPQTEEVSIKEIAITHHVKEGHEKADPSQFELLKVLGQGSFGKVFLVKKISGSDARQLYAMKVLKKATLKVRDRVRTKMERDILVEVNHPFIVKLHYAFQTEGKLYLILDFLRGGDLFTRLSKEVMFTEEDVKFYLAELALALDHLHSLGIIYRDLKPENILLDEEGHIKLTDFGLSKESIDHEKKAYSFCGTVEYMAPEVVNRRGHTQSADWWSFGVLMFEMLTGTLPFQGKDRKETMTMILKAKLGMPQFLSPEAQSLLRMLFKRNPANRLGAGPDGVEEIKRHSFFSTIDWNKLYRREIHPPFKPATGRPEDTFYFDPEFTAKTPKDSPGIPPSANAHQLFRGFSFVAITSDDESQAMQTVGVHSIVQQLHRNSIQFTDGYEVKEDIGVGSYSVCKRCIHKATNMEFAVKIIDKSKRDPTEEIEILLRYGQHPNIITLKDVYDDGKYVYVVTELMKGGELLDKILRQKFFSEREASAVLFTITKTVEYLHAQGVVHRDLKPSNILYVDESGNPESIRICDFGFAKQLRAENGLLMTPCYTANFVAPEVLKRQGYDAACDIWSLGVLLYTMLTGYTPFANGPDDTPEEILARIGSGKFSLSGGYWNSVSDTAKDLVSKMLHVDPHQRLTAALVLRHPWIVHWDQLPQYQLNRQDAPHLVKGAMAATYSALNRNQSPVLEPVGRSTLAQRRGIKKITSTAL
Vascular endothelial growth factor receptor 3 (Homo sapiens), sequence (P35916 whole entry): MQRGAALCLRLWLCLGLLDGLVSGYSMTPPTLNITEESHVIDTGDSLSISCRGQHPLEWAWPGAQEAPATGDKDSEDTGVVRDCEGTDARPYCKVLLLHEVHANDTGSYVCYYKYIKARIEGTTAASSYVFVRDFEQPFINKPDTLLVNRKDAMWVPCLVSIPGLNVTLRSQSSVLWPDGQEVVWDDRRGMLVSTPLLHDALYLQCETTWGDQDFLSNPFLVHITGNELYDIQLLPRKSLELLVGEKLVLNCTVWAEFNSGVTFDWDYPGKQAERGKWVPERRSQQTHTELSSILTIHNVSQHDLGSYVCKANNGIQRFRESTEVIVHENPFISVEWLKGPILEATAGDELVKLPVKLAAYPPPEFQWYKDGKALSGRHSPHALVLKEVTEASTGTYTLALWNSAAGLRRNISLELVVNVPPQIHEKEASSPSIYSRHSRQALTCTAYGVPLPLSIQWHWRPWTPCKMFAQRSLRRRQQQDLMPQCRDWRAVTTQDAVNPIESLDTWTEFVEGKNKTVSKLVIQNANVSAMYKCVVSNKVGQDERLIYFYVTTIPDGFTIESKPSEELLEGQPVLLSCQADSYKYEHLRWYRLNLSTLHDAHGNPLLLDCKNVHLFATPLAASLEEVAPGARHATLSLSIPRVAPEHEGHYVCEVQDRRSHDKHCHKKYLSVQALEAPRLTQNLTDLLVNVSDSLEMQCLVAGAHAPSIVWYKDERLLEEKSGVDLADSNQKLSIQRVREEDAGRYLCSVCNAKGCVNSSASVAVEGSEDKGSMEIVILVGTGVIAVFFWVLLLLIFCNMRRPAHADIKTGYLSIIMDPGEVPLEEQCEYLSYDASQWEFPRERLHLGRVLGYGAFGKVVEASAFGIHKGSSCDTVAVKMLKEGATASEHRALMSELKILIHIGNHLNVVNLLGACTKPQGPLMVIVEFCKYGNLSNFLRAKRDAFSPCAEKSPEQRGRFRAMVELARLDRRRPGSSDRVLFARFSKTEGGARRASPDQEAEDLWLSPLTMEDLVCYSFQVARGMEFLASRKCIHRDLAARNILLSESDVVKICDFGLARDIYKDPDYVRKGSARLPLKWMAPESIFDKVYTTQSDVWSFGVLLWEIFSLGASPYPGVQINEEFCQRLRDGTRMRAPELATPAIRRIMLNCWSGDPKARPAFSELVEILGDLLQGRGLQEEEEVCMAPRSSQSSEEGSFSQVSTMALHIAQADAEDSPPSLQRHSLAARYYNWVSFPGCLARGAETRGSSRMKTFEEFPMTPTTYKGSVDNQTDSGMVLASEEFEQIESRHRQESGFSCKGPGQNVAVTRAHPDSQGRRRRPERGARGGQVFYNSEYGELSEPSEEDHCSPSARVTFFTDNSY
Tyrosine-protein kinase Lyn (Homo sapiens), sequence (P07948 2-512 limits assumed): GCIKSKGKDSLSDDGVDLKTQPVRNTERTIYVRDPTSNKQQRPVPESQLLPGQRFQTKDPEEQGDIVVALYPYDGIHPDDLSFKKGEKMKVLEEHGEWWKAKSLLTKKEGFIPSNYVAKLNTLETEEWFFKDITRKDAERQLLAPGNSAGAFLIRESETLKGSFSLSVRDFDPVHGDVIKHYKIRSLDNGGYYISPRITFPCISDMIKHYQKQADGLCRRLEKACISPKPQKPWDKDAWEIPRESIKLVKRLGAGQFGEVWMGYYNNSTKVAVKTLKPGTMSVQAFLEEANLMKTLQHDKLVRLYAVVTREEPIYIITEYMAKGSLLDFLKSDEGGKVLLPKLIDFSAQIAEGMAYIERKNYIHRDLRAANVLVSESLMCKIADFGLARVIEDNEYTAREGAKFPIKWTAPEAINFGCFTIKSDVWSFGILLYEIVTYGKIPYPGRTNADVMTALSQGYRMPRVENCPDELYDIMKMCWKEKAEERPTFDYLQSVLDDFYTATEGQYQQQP
Cyclin-dependent kinase 4 (Homo sapiens), sequence (P11802 whole entry): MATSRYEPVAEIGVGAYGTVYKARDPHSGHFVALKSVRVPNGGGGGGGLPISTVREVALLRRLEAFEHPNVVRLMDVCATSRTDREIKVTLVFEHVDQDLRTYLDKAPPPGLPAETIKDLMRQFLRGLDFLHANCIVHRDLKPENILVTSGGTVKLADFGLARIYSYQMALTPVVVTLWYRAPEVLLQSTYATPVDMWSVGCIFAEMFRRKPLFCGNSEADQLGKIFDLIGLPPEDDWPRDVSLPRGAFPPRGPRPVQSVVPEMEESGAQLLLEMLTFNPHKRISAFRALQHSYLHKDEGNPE

C[C@@H]1CN(c2cc(-c3nn(C)c4ccc(OC5(C)CC5)cc34)ncn2)C[C@H](C)O1 [MLi-2-NC]
residual activity [1, 20]: 82%
residual activity [2, 20]: 100%
residual activity [3, 20]: 63%
residual activity [4, 20]: 79%
residual activity [5, 20]: 90%
residual activity [6, 20]: 76%
residual activity [7, 20]: 89%
residual activity [8, 20]: 97%
residual activity [9, 20]: 100%
residual activity [10, 20]: 100%
residual activity [11, 20]: 91%
residual activity [12, 20]: 77%
residual activity [13, 20]: 76%
residual activity [14, 20]: 12%
residual activity [15, 20]: 71%
residual activity [16, 20]: 100%
residual activity [17, 20]: 82%
residual activity [18, 20]: 85%
residual activity [19, 20]: 77%

C[C@@H]1CN(c2cc(-c3n[nH]c4ccc(OC5(C)CC5)cc34)ncn2)C[C@H](C)O1 [MLi-2]
residual activity [1, 21]: 91%
residual activity [2, 21]: 100%
residual activity [3, 21]: 84%
residual activity [4, 21]: 66%
residual activity [5, 21]: 78%
residual activity [6, 21]: 66%
residual activity [7, 21]: 100%
residual activity [8, 21]: 89%
residual activity [9, 21]: 100%
residual activity [10, 21]: 84%
residual activity [11, 21]: 85%
residual activity [12, 21]: 87%
residual activity [13, 21]: 84%
residual activity [14, 21]: 0%
residual activity [15, 21]: 97%
residual activity [16, 21]: 100%
residual activity [17, 21]: 98%
residual activity [18, 21]: 100%
residual activity [19, 21]: 100%
